Test results: ChEMBL document CHEMBL3608254, “Discovery of novel triazolobenzazepinones as γ-secretase modulators with central Aβ42 lowering in rodents and rhesus monkeys” (Bioorg Med Chem Lett, 2015)
Converted amounts (≈) assume the structure as drawn. The source made the active and inactive calls. The rule behind the calls is not given here.

Key:
[1] = Solubility of the compound at pH 2; format: physicochemical; details: buffer
[2] = Oral bioavailability in dog at 0.5 mg/kg; format: ADME, organism-based, Canis lupus familiaris; details: in vivo
[3] = Inhibition of gamma-secretase-mediated cleavage of NotchdeltaE in human HeLa cells expressing NotchdeltaE assessed as intracellular release of Notch intracellular domain (NICD)/N-terminal luciferase by luminescent method; format: cell-based
[4] = Volume of distribution at steady state in Sprague-Dawley rat at 1 mg/kg, iv and 2 mg/kg, po; format: ADME, organism-based; details: in vivo, read-out: Vdss
Rhesus monkey [5] = test: Antialzheimer's disease activity in rhesus monkey cisterna-magna-ported model assessed as reduction of amyloid beta-40 level in CSF at 6 mg/kg bolus dose followed by 4 hrs infusion of 44 mg/kg, iv measured up to 20 hrs; format: functional, organism-based; details: Macaca mulatta
[6] = Fraction unbound in rhesus monkey; format: ADME, organism-based, Macaca mulatta; details: in vivo
[7] = Half life in Sprague-Dawley rat at 1 mg/kg, iv; format: ADME, organism-based; details: in vivo
[8] = AUC in cerebrospinal fluid of rhesus monkey cisterna-magna-ported model at 6 mg/kg bolus dose followed by 4 hrs infusion of 44 mg/kg, iv; format: ADME, organism-based, Macaca mulatta
[9] = target: T1, Voltage-gated inwardly rectifying potassium channel KCNH2 (Homo sapiens, UniProt Q12809)
Description: Binding affinity to human ERG expressed in HEK cells by MK-499 radioligand displacement assay

[10] = target: T2, Nuclear receptor subfamily 1 group I member 2 (Homo sapiens, UniProt O75469); test: Activation of PXR (unknown origin); format: ADME
T2 sequence (O75469 whole entry): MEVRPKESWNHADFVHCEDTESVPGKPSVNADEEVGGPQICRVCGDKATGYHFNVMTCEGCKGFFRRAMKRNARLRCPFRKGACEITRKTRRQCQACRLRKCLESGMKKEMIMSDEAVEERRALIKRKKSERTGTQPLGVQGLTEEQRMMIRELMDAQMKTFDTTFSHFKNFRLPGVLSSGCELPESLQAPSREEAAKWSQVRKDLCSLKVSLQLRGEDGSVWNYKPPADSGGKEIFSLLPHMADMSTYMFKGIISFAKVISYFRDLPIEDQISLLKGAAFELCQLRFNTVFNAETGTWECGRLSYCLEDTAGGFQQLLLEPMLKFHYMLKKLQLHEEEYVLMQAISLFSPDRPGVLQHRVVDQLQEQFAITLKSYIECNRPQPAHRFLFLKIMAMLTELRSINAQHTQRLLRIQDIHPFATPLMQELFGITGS

CYP3A4 [11] = target: T3, CYP3A4 (Homo sapiens, UniProt P08684); test: Time dependent inhibition of CYP3A4 (unknown origin) at 50 uM; format: ADME
[12] = Fraction unbound in dog; format: ADME, organism-based, Canis lupus familiaris; details: in vivo
[13] = Fraction unbound in rat; format: ADME, organism-based; details: in vivo
Rattus norvegicus [14] = test: Dose normalized AUC (0 to 24 hrs) in Sprague-Dawley rat at 2 mg/kg, po; format: ADME, organism-based; details: in vivo
[15] = Plasma clearance in Sprague-Dawley rat at 1 mg/kg, iv and 2 mg/kg, po; format: ADME, organism-based
[16] = target: Sodium-dependent serotonin transporter (Homo sapiens, UniProt P31645); test: Inhibition of SERT (unknown origin)
[17] = Solubility of the compound at pH 7; format: physicochemical; details: buffer
[18] = Plasma clearance in dog at 0.25 mg/kg, iv and 0.5 mg/kg, po; format: ADME, organism-based, Canis lupus familiaris
[19] = Volume of distribution at steady state in rhesus monkey at 0.25 mg/kg, iv and 0.5 mg/kg, po; format: ADME, organism-based, Macaca mulatta; details: in vivo, read-out: Vdss
[20] = Half life in human hepatocytes; format: ADME, cell-based, Hepatocyte
Rattus norvegicus [21] = test: Antialzheimer's disease activity in Sprague-Dawley rat assessed as reduction of amyloid beta-42 level in brain at 100 mg/kg, po after 6 hrs relative to control; format: functional
Canis familiaris = test: Dose normalized AUC (0 to 24 hrs) in dog at 0.5 mg/kg, po; format: ADME, organism-based, Canis lupus familiaris; details: in vivo
[22] = Half life in rat hepatocytes; format: ADME, cell-based, Hepatocyte
[23] = Fraction unbound in human; format: ADME, organism-based; details: in vivo
[24] = Drug level in Sprague-Dawley rat brain at 100 mg/kg, po after 6 hrs; format: ADME, organism-based; details: read-out: Drug uptake
[25] = Volume of distribution at steady state in dog at 0.25 mg/kg, iv and 0.5 mg/kg, po; format: ADME, organism-based, Canis lupus familiaris; details: in vivo, read-out: Vdss
[26] = Half life in rhesus monkey hepatocytes; format: ADME, cell-based, Macaca mulatta, Hepatocyte
Plasma = test: AUC in plasma of rhesus monkey cisterna-magna-ported model at 6 mg/kg bolus dose followed by 4 hrs infusion of 44 mg/kg, iv; format: ADME, organism-based, Macaca mulatta; details: in vivo
CYP2C9 = CYP2C9 (Homo sapiens, UniProt P11712); test: Inhibition of CYP2C9 (unknown origin) at 10 uM; format: ADME
Mus musculus = test: Antialzheimer's disease activity in po dosed APP-YAC transgenic mouse assessed as reduction of amyloid beta-40/42 level in brain measured after 6 hrs; format: functional
[27] = Half life in dog hepatocytes; format: ADME, cell-based, Canis lupus familiaris, Hepatocyte
CYP3A4 [28] = target: T3, CYP3A4; test: Inhibition of CYP3A4 (unknown origin) at 10 uM; format: ADME
[29] = target: T1, Voltage-gated inwardly rectifying potassium channel KCNH2; test: Inhibition of human ERG expressed in HEK cells assessed as reduction in IKr current by patchXpress assay; format: cell-based, HEK293
Rattus norvegicus [30] = test: Antialzheimer's disease activity in po dosed Sprague-Dawley rat assessed as reduction of amyloid beta-40/42 level in brain measured after 6 hrs; format: functional
[31] = Half life in dog at 0.25 mg/kg, iv; format: ADME, organism-based, Canis lupus familiaris; details: in vivo
[32] = Apparent permeability of the compound in pig LLC-PK1 cells; format: ADME, cell-based, Sus scrofa
[33] = Oral bioavailability in rhesus monkey at 0.5 mg/kg; format: ADME, organism-based, Macaca mulatta; details: in vivo
Rattus norvegicus [34] = test: Dose normalized AUC in Wistar-Han rat at 100 mg/kg, po; format: ADME, organism-based; details: in vivo
CYP2D6 = CYP2D6 (Homo sapiens, UniProt P10635); test: Inhibition of CYP2D6 (unknown origin) at 10 uM; format: ADME
[35] = Half life in rhesus monkey at 0.25 mg/kg, iv; format: ADME, organism-based, Macaca mulatta; details: in vivo
[36] = Lipophilicity, log D of the compound; format: physicochemical; details: octanol/water
Rhesus monkey [37] = test: Antialzheimer's disease activity in rhesus monkey cisterna-magna-ported model assessed as reduction of amyloid beta-42 level in CSF at 6 mg/kg bolus dose followed by 4 hrs infusion of 44 mg/kg, iv measured up to 20 hrs; format: functional, organism-based; details: Macaca mulatta
Rattus norvegicus [38] = test: Oral bioavailability in Sprague-Dawley rat at 2 mg/kg; format: ADME, organism-based; details: in vivo

T1 sequence (Q12809 whole entry): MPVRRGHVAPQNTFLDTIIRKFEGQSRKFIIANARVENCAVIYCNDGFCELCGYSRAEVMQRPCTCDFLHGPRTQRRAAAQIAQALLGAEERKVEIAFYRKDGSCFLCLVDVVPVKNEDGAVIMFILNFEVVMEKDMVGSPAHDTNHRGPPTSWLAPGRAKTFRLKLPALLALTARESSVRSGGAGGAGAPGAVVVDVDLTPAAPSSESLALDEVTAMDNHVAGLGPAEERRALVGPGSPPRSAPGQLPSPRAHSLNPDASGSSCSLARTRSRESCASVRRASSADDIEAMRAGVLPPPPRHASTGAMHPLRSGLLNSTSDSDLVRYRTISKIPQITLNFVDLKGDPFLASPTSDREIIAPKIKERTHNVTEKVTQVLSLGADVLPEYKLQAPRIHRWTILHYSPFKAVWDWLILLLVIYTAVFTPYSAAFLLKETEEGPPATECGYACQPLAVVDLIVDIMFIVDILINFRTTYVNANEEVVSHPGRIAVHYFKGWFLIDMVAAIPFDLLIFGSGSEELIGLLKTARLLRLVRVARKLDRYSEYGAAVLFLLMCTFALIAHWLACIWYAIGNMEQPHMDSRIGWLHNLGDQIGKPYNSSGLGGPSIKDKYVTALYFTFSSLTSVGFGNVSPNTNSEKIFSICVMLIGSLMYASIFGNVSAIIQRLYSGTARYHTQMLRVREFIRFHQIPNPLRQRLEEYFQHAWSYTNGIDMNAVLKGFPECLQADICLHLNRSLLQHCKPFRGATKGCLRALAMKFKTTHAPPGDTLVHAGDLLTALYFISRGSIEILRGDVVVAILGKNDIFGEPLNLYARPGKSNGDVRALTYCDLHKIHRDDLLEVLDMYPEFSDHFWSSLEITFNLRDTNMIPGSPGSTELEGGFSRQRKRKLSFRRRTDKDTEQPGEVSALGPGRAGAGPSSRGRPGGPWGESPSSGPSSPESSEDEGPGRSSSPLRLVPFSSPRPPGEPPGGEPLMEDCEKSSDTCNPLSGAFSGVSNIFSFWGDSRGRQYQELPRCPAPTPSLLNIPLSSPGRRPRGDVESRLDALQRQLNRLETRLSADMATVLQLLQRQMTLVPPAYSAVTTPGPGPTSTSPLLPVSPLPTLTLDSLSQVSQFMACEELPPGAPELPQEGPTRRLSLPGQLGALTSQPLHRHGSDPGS
T3 sequence (P08684 whole entry): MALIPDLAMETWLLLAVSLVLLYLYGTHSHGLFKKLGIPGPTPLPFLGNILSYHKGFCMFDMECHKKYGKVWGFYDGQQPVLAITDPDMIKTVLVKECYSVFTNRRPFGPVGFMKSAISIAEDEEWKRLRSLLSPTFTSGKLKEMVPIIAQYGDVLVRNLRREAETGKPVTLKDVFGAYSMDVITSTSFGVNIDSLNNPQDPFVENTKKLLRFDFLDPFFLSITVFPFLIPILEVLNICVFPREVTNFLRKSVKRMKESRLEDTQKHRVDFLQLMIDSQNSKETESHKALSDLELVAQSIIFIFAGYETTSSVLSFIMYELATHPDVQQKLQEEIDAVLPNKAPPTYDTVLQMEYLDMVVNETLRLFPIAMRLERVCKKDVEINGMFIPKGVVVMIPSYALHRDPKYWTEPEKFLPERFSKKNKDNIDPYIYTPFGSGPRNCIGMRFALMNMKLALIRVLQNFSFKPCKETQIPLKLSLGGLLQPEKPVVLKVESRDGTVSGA
CYP2C9, sequence (P11712 whole entry): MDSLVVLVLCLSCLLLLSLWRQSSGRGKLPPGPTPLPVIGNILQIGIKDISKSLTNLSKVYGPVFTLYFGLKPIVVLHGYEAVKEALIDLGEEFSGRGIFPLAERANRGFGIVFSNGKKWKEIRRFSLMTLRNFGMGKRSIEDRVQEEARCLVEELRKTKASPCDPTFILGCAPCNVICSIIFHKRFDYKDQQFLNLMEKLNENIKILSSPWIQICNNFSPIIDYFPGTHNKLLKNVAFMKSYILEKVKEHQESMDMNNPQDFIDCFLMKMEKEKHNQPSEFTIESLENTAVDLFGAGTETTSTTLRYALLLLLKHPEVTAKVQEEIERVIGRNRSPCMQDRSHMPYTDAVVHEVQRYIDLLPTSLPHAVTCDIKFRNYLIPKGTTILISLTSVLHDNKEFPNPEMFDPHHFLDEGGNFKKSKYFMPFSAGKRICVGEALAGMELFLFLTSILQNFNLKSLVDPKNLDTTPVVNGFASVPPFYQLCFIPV
Sodium-dependent serotonin transporter, sequence (P31645 whole entry): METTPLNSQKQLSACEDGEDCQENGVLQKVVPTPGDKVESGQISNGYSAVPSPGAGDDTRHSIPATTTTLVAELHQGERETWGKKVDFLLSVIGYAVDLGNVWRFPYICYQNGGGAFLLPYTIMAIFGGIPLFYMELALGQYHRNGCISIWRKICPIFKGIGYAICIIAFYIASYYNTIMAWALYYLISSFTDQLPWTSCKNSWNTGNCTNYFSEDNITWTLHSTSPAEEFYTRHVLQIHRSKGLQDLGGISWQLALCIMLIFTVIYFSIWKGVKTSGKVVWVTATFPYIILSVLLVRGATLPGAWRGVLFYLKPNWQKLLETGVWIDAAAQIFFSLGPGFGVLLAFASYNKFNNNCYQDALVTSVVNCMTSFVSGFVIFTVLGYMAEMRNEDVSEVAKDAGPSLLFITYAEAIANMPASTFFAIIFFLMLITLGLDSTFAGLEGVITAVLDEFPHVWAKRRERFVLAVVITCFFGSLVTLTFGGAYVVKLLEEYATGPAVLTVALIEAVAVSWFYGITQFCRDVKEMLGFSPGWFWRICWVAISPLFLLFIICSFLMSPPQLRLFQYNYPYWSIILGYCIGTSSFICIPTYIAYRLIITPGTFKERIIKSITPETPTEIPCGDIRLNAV
CYP2D6, sequence (P10635 whole entry): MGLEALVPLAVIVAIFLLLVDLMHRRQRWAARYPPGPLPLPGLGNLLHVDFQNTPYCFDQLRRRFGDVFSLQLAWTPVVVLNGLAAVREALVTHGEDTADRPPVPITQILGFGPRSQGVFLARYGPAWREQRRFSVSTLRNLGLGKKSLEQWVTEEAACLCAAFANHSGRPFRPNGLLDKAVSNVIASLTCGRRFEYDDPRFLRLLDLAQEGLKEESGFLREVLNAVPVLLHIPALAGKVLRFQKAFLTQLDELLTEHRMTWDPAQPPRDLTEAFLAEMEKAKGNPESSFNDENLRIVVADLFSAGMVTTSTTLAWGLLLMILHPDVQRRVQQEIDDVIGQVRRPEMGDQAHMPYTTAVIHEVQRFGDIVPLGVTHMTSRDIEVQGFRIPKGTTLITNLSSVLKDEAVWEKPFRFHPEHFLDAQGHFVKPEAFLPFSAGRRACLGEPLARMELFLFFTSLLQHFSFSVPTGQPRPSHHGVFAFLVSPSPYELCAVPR

COc1cc(-c2cn(C3CCc4c(F)cccc4N(CC(F)(F)F)C3=O)nn2)ccc1-n1cnc(C)c1 (stereo not drawn) [GSM1]
solubility [1]: 180 µM (≈ 92.6 µg/mL) | bioavailability [2]: < 5% | IC50 [3]: 39.8 µM | Vd [4]: 4.8 L/kg | Activity (Rhesus monkey [5]): inactive | fraction unbound [6]: 0.057 | half-life [7]: 0.8 h | AUC at 4 h [8]: 2.2 µM·h | IC50 [9]: 2.61 µM | EC50 [10]: > 30 µM | inhibition at 50 µM (CYP3A4 [11]): 18% | fraction unbound [12]: 0.058 | fraction unbound [13]: 0.037 | AUCt/dose (Rattus norvegicus [14]): 1.6 µM·kg·h/mg | clearance [15]: 38 mL/min/kg | IC50 [16]: 0.032 µM | solubility [17]: 5.6 µM (≈ 2.88 µg/mL) | clearance [18]: 82 mL/min/kg | Vd [19]: 2 L/kg | half-life [20]: 1.02 h | inhibition in vivo at 100 mg/kg (Rattus norvegicus [21]): 92% | AUCt/dose (Canis familiaris): 0.1 µM·kg·h/mg | half-life [22]: 0.6 h | fraction unbound [23]: 0.036 | concentration at 6 h [24]: 35 µM | Vd [25]: 14 L/kg | half-life [26]: 0.817 h | AUC (Plasma): 183 µM·h | inhibition at 10 µM (CYP2C9): 68% | ED50 (Mus musculus): 15 mg/kg | half-life [27]: 1.12 h | inhibition at 10 µM (CYP3A4 [28]): 42% | IC50 [29]: 12.9 µM | ED50 (Rattus norvegicus [30]): 15 mg/kg | half-life [31]: 6.2 h | Papp [32]: 25 ×10⁻⁶ cm/s | bioavailability [33]: < 5% | AUC/dose (Rattus norvegicus [34]): 8.8 µM·kg·h/mg | inhibition at 10 µM (CYP2D6): 28% | half-life [35]: 1.2 h | logD [36]: 3.3 | Activity (Rhesus monkey [37]): Active | F (Rattus norvegicus [38]): 190%
